Data from US20230125667A1, “NOVEL TDZD ANALOGS AS AGENTS THAT DELAY, PREVENT, OR REVERSE AGE-ASSOCIATED DISEASES AND AS ANTI-CANCER AND ANTILEUKEMIC AGENTS” (United States Government as represented by the Department …, priority 2020, published 2023).

Tests used:
SH-SY5Y-APPSw cells = experiment: Thioflavin-T staining of amyloid-like aggregates in SH-SY5Y-APPSw cells; assay type: cell-based, human
Procedure: Several TDZD-conjugated drugs (putative GSK-3 inhibitors) were evaluated for their ability to reduce accumulation of protein aggregates, and for protection against aggregation-associated end-points in the following model systems: (i.) SH-SY5Y-APPSw, a neuroblastoma cell line expressing the Swedish mutation of Amyloid Precursor Protein (APPSw), and thus predisposed to form β-amyloid deposits; (ii.) C. elegans strain CL4176, a model of Alzheimer-like amyloidopathy that can be induced to express human Aβ1-42 in muscle, or may express it at a lower level without induction; (iii.) C. elegans strain AM141, a model of Huntington-like polyglutamine aggregation that constitutively expresses Q40::YFP (a tract of 40 glutamines fused in-frame to yellow fluorescent protein) in muscle cells and forms aggregates progressively with adult aging. The TDZD analog PNR-962 (a putative GSK-3 inhibitor) and other related compounds (not shown) were protective in all aggregation assays.
First, the effects of TDZD analogues were tested on the human neuroblastoma cell line SH-SY5Y-APPSw, a model of Alzheimer-like amyloid aggregation expressing the “Sw” mutant form of Amyloid Precursor Protein, APP. These drugs all produced significant reductions in amyloid-like aggregates, by 30-50% as quantified by thioflavin-T staining intensity (data for PNR-962 are shown in FIG. 4). Modified TDZD-8 analogues PNR-962 and BSK-179 are more anti-aggregative than TDZD-8, lowering total amyloid-staining intensity by a further 14% (data not shown).
Following previously described experimental procedures (Liu, et al. (2005). S100B-induced microglial and neuronal IL-1 expression is mediated by cell type-specific transcription factors. Journal of Neurochemistry. 92(3): 546-553), SH-SY5Y-APPSw neuronal cells expressing an aggregation-prone double mutant of amyloid precursor protein (APPSw) were cultured in DMEM plus 10% (v/v) fetal bovine serum (FBS) at 37° C. Cells were suspended in trypsin/EDTA and rinsed in PBS prior to re-plating or harvesting. […] Human neuroblastoma cells were treated with PNR962, either simultaneous with sAPPα or beginning 1 h prior to sAPPα addition (pre-treatment) in order to ascertain the protective benefits of PNR962 on protein aggregation in human neuroblastoma cell lines. A similar experimental procedure was followed to examine the effect of treatment with these analogs on non-neuronal human cells, exposing human embryonic kidney cells (HEK) that express tau-like aggregates (found in AD-associated diseases) to 0.001, 0.01, and 1-μM doses of TDZD-8 and its analogues.
To observe the protective effects of the novel TDZD analogs on protein aggregation in SY5Y-APPSw cells, using DMEM medium containing 10% fetal calf serum in […], cells were cultured at 37′C for 26 hrs allowing cells to approximately double in number. After 48 h of cell incubation in the presence of specified concentrations of drug or vehicle, cells were fixed 15 min in formaldehyde (4% v/v), washed, and stained 20 min at ˜22° C. in a dark container with 0.1% w/v Thioflavin T mixed with DAPI (1 μg/ml; Life Technologies, Grand Island, N.Y., USA). […] The intensity of aggregate/thioflavin-T fluorescence per field was quantified via an Image J plug-in developed in-house, and normalized to the number of DAPI^+ nuclei counted per field, to obtain an average intensity of aggregates per cell for each treatment.

tau hyperphosphorylation = experiment: Tau hyperphosphorylation in rat cortical cells; assay type: cell-based; conditions: FIG. 23
Procedure: Microtubule assembly involves stable tau binding to other proteins in the complex, including tubulin. Hyperphosphorylated tau is readily sequestered into aggregates and generates intracellular neurofibrillary tangles (“tau tangles”). […] The top drugs were tested for impact on tau hyperphosphorylation in rat cortical cells (FIG. 23).
Primary cultures were established from cerebral cortex of E18 rats; under serum-free conditions (Neurobasal/B27) these cultures contain ˜85% neurons, with the remainder comprising astrocytes (˜12% and microglia ˜3%). At the […], triplicate cultures were exposed to the test compounds at the indicated concentrations; a separate triplicate was exposed to vehicle (0.5% DMSO final concentration). After 24 h, cultures were washed once with ice-cold PBS and then scraped in RIPA buffer containing inhibitors of proteases and phosphatases. Lysates were centrifuged at 14,000 g at 4° C. for 7 min. Supernatants were removed and stored at −80° C. after removal of small aliquots for determination of protein concentration by BCA. Samples equilibrated for total protein were analyzed by Wes™ capillary-gel immunodetection (ProteinSimple) using the AT8 clone of anti-phosphoTau (Invitrogen MN 1020) or total Tau (ABclonal A0002). Detected antigen was calculated by peak area (automated peak fit), and values are reported as AT8 normalized to total Tau.

C. elegans strain CL4176 = experiment: Amyloid-associated paralysis in C. elegans strain CL4176; assay type: in vivo; conditions: after induction of Aβ1-42 in muscle (FIG. 5)
wild-type nematodes = experiment: Lifespan of C. elegans; assay type: in vivo; conditions: FIG. 8
Procedure: It was previously shown that several interventions that improve age-associated phenotypes also modulate lifespan (Ayyadevara et al. (2017) Antioxid Redox Signal. 27(17): 1383-1396; Ayyadevara et al. (2005) Aging Cell. 4(5): 257-271). The lifespan was assessed in C. elegans, either mock-treated or exposed to TDZD analogues. PNR-962 and BSK-179 extended the lifespan of wild-type nematodes to an identical degree, increasing the mean by roughly 25-30% (P<0.001; FIG. 8).
To obtain synchronized eggs for lifespan studies, worms were maintained for 2 generations, free of contamination and starvation. Healthy, well-fed adult worms from the 2nd generation were then lysed, and eggs placed on plates with appropriate doses of TDZD analogue PNR962, or DMSO vehicle alone (for a final concentration of 0.02% v/v DMSO). At the L4 larval stage, worms were transferred daily to fresh plates for 7 days, and thereafter on alternate days until all the worms are dead. C. elegans that moved spontaneously or responded to gentle prodding were scored as alive. For the mortality computation, worms that were lost for reasons other than natural death were censored. The methods described were adopted from previously described experimental procedures (Ayyadevara, et al. (2016) PIP3-binding proteins promote age-dependent protein aggregation and limit survival in C. elegans. Oncotarget, 7(31): 48870-48886; Bharill, et al. (2013) Extreme Depletion of PIP3 Accompanies the Increased Life Span and Stress Tolerance of PI3K-null C. elegans Mutants. Frontiers in Genetics, 4).

O=c1sn(CCI)c(=O)n1Cc1ccccc1 [PNR-962]
protein aggregation (SH-SY5Y-APPSw cells; 5 μM (FIG. 4)): reduces protein aggregation | further lowering of total amyloid-staining intensity relative to TDZD-8 (SH-SY5Y-APPSw cells; data not shown): 14% | tau hyperphosphorylation (tau hyperphosphorylation): suppression of tau hyperphosphorylation | paralysis rescued / reduced (C. elegans strain CL4176): > 75% | lifespan (wild-type nematodes): increased
